Results from patent publication US10800770B1, “Chroman derivatives having estrogen receptor degradation activity and uses thereof” (ACCUTAR BIOTECHNOLOGY INC., priority 2019, dated 2020).

Target: T1, ERα (Homo sapiens, UniProt P03372)
T1 construct: endogenous in cells; host or cells: T47D
T1 sequence (P03372 1-595): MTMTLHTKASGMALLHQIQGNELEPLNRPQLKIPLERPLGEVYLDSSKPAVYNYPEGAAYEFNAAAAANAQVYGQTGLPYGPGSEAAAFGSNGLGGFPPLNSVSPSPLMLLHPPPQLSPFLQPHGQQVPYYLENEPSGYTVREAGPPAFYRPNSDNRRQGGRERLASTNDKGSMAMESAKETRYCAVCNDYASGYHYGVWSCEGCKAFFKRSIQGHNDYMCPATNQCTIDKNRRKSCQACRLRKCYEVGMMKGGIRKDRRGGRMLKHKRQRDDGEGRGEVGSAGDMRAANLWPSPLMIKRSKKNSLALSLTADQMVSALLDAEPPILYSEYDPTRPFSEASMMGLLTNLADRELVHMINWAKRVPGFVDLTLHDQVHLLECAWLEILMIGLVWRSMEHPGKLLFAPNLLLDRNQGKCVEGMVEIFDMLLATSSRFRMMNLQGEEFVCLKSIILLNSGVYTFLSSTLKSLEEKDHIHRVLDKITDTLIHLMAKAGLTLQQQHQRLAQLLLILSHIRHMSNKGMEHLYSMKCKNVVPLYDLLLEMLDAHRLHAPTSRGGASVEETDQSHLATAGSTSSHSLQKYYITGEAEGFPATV
Test: ERα degradative activity in T47D cells (Western blot, 6 hours after administration)
Type: cell-based
Settings: T47D cell line, ERα degradation
Procedure: T47D cells were plated in 24-well plates at 1.5×10^5 cells/well in the RPMI growth medium containing 10% FBS and 1× Penicillin Streptomycin. MCF7 cells were plated in 24-well plates at 1.5×10^5 cells/well in the DMEM growth medium containing 10% FBS and 1× Penicillin Streptomycin. CAMA1 cells were plated in 24-well plates at 2×10^5 cells/well in the RPMI growth medium containing 20% FBS and 1× Penicillin Streptomycin. They were then incubated at 37° C. overnight. The following day, the test compound was administered to the cells by using 1000× compound stock solution prepared in DMSO at various concentrations. After administration of the compound, the cells were then incubated at 37° C. for 6 hours.
Upon completion, the cells were washed with PBS and protein was collected in Laemmli sample buffer (1×; VWR International). Proteins in cell lysate were separated by SDS-PAGE and transferred to Odyssey nitrocellulose membranes (Licor) with Iblot® dry blotting transfer system (ThermoFisher). Nonspecific binding was blocked by incubating membranes with Intercept Blocking Buffer (Licor) for 1 hour at room temperature with gentle shaking. The membranes were then incubated overnight at 4° C. with Primary antibodies rabbit anti-ER (Cell Signaling, 8644) and mouse anti-GAPDH (1:5,000, Santa Cruz Biotechnology, sc-47724) diluted in Intercept Blocking Buffer containing 0.1% Tween 20. After washing 3 times with TBS-T, the membranes were incubated with IRDye® 800CW goat anti-mouse IgG (1:20,000, Licor) or IRDye® 800CW goat anti-rabbit IgG (1:20,000, Licor) for 1 hour. After TBS-T washes, membranes were rinsed in TBS and scanned on Odyssey® CLx Imaging System (Licor). The bands were quantified using Image Studio™ Software (Licor).

DC50 [nM] | SMILES
9.3 | O=C1CC[C@H](N2Cc3cc(N4CCN(CC5CCN(c6ccc([C@@H]7c8ccc(O)cc8OCC7c7ccc(F)c(F)c7)cc6F)CC5)CC4)ccc3C2=O)C(=O)N1 (relative stereo) [Compound 84, cis-(S)-3-(5-(4-((1-(4-(3-(3,4-difluorophenyl)-7-hydroxychroman-4-yl)-2-fluoro-phenyl)piperidin-4-yl)methyl)piperazin-1-yl)-1-oxoisoindolin-2-yl)piperidine-2,6-dione]
3 | O=C1CC[C@H](N2Cc3cc(N4CCN(CC5CCN(c6ccc([C@@H]7c8ccc(O)cc8OCC7c7ccccc7)cc6F)CC5)CC4)ccc3C2=O)C(=O)N1 (relative stereo) [Compound 85, cis-(S)-3-(5-(4-((1-(2-fluoro-4-(7-hydroxy-3-phenylchroman-4-yl)phenyl)piperidin-4-yl)methyl)piperazin-1-yl)-1-oxoisoindolin-2-yl)piperidine-2,6-dione]
0.7 | COc1ccc(C2COc3cc(O)ccc3[C@H]2c2ccc(N3CCC(CN4CCN(c5ccc6c(c5)CN([C@H]5CCC(=O)NC5=O)C6=O)CC4)CC3)cc2)cc1 (relative stereo) [Compound 89, cis-(S)-3-(5-(4-((1-(4-(7-hydroxy-3-(4-methoxy-phenyl)chroman-4-yl)phenyl)piperidin-4-yl)methyl)piperazin-1-yl)-1-oxoisoindolin-2-yl)piperidine-2,6-dione]
9.6 | COc1ccc(C2COc3cc(O)ccc3[C@H]2c2ccc(N3CCC(CN4CCN(c5cc6c(cc5F)C(=O)N([C@H]5CCC(=O)NC5=O)C6)CC4)CC3)cc2)cc1 (relative stereo) [Compound 90, cis-(S)-3-(6-fluoro-5-(4-((1-(4-(7-hydroxy-3-(4-methoxy-phenyl)chroman-4-yl)phenyl)piperidin-4-yl)methyl)piperazin-1-yl)-1-oxoisoindolin-2-yl)piperidine-2,6-dione]
12.6 | O=C1CC[C@H](N2C(=O)c3ccc(N4CCN(CC5CCN(c6ccc([C@@H]7c8ccc(O)cc8OCC7c7ccccc7)cc6F)CC5)CC4)cc3C2=O)C(=O)N1 (stereo in doubt) [Compound 87, cis-2-(2,6-dioxo-piperidin-3-yl)-5-(4-((1-(2-fluoro-4-(7-hydroxy-3-phenylchroman-4-yl)phenyl)piperidin-4-yl)methyl)piperazin-1-yl)isoindoline-1,3-dione]
0.5 | O=C1CC[C@H](N2Cc3cc(N4CCN(CC5CCN(c6ccc([C@@H]7c8ccc(O)cc8OC[C@@H]7c7ccccc7)cc6F)CC5)CC4)ccc3C2=O)C(=O)N1 [Compound 86, (S)-3-(5-(4-((1-(2-fluoro-4-((3S,4R)-7-hydroxy-3-phenylchroman-4-yl)phenyl)piperidin-4-yl)methyl)piperazin-1-yl)-1-oxoisoindolin-2-yl)piperidine-2,6-dione]

The remaining lines, values behind:

SMILES | DC50 [nM]
O=C1CC[C@H](N2Cc3cc(N4CCN(CC5CCN(c6ccc(C7c8ccc(O)cc8OC[C@@H]7c7ccccc7)cc6)CC5)CC4)ccc3C2=O)C(=O)N1 (relative stereo) [Compound 32, cis-(S)-3-(5-(4-((1-(4-(7-hydroxy-3-phenylchroman-4-yl)phenyl)piperidin-4-yl)methyl)piperazin-1-yl)-1-oxoisoindolin-2-yl)piperidine-2,6-dione] | 2.4
Cc1cccc([C@H]2COc3cc(O)ccc3C2c2ccc(N3CCC(CN4CCN(c5ccc6c(c5)CN([C@H]5CCC(=O)NC5=O)C6=O)CC4)CC3)c(F)c2)c1 (relative stereo) [Compound 52, cis-(S)-3-(5-(4-((1-(2-fluoro-4-(7-hydroxy-3-(m-tolyl)chroman-4-yl)phenyl)piperidin-4-yl)methyl)piperazin-1-yl)-1-oxoisoindolin-2-yl)piperidine-2,6-dione] | 5.6
COc1cccc([C@H]2COc3cc(O)ccc3C2c2ccc(N3CCC(CN4CCN(c5ccc6c(c5)CN([C@H]5CCC(=O)NC5=O)C6=O)CC4)CC3)cc2)c1 (relative stereo) [Compound 56, cis-(S)-3-(5-(4-((1-(4-(7-hydroxy-3-(3-methoxy-phenyl)chroman-4-yl)phenyl)piperidin-4-yl)methyl)piperazin-1-yl)-1-oxoisoindolin-2-yl)piperidine-2,6-dione] | 1.7
COc1cc([C@H]2COc3cc(O)ccc3[C@H]2c2ccc(N3CCC(CN4CCN(c5ccc6c(c5)CN([C@H]5CCC(=O)NC5=O)C6=O)CC4)CC3)cc2)ccc1F (relative stereo) [Compound 63, cis-(S)-3-(5-(4-((1-(4-(3-(4-fluoro-3-methoxyphenyl)-7-hydroxychroman-4-yl)phenyl)piperidin-4-yl)methyl)piperazin-1-yl)-1-oxoisoindolin-2-yl)piperidine-2,6-dione] | 2.1
COc1cccc([C@H]2COc3cc(O)ccc3[C@H]2c2ccc(N3CCC(CN4CCN(c5cc6c(cc5F)C(=O)N([C@H]5CCC(=O)NC5=O)C6)CC4)CC3)cc2)c1 (relative stereo) [Compound 74, cis-(S)-3-(6-fluoro-5-(4-((1-(4-(7-hydroxy-3-(3-methoxy-phenyl)chroman-4-yl)phenyl)piperidin-4-yl)methyl)piperazin-1-yl)-1-oxoisoindolin-2-yl)piperidine-2,6-dione] | 7.3
O=C1CCC(N2C(=O)c3ccc(N4CCN(CC5CCN(c6ccc(C7c8ccc(O)cc8OC[C@@H]7c7ccccc7)cc6)CC5)CC4)cc3C2=O)C(=O)N1 (stereo in doubt) [Compound 36, cis-2-(2,6-dioxopiperidin-3-yl)-5-(4-((1-(4-(7-hydroxy-3-phenylchroman-4-yl)phenyl)piperidin-4-yl)methyl)piperazin-1-yl)isoindoline-1,3-dione] | > 10
O=C1CC[C@H](N2Cc3cc(N4CCN(CC5CCN(c6ccc([C@@H]7c8ccc(O)cc8OC[C@@H]7c7ccccc7)cc6)CC5)CC4)ccc3C2=O)C(=O)N1 [Compound 33, (S)-3-(5-(4-((1-(4-((3S,4R)-7-hydroxy-3-phenylchroman-4-yl)phenyl)piperidin-4-yl)methyl)piperazin-1-yl)-1-oxoisoindolin-2-yl)piperidine-2,6-dione] | 0.3
O=C1CC[C@H](N2Cc3cc(N4CCN(CC5CCN(c6ccc([C@H]7c8ccc(O)cc8OC[C@H]7c7ccccc7)cc6)CC5)CC4)ccc3C2=O)C(=O)N1 [Compound 34, (S)-3-(5-(4-((1-(4-((3R,4S)-7-hydroxy-3-phenylchroman-4-yl)phenyl)piperidin-4-yl)methyl)piperazin-1-yl)-1-oxoisoindolin-2-yl)piperidine-2,6-dione] | > 100
O=C1CC[C@H](N2Cc3cc(N4CCN(CC5CCN(c6ccc([C@@H]7c8ccc(O)cc8OC[C@@H]7c7ccccc7)cc6F)CC5)CC4)c(F)cc3C2=O)C(=O)N1 [Compound 41, (S)-3-(6-fluoro-5-(4-((1-(2-fluoro-4-((3S,4R)-7-hydroxy-3-phenylchroman-4-yl)phenyl)piperidin-4-yl)methyl)piperazin-1-yl)-1-oxoisoindolin-2-yl)piperidine-2,6-dione] | 4
O=C1CC[C@H](N2Cc3cc(N4CCN(CC5CCN(c6ccc([C@@H]7c8ccc(O)cc8OC[C@@H]7c7ccccc7)cc6)CC5)CC4)c(F)cc3C2=O)C(=O)N1 [Compound 42, (S)-3-(6-fluoro-5-(4-((1-(4-((3S,4R)-7-hydroxy-3-phenylchroman-4-yl)phenyl)piperidin-4-yl)methyl)piperazin-1-yl)-1-oxoisoindolin-2-yl)piperidine-2,6-dione] | 1.1
O=C1CC[C@H](N2Cc3cc(N4CCN(CC5CCN(c6ccc([C@H]7c8ccc(O)cc8OC[C@H]7c7ccccc7)cc6F)CC5)CC4)ccc3C2=O)C(=O)N1 [Compound 45, (S)-3-(5-(4-((1-(2-fluoro-4-((3R,4S)-7-hydroxy-3-phenylchroman-4-yl)phenyl)piperidin-4-yl)methyl)piperazin-1-yl)-1-oxoisoindolin-2-yl)piperidine-2,6-dione] | > 100
Cc1cc([C@H]2COc3cc(O)ccc3[C@H]2c2ccc(N3CCC(CN4CCN(c5ccc6c(c5)CN([C@H]5CCC(=O)NC5=O)C6=O)CC4)CC3)c(F)c2)ccc1F [Compound 60, cis-(S)-3-(5-(4-((1-(2-fluoro-4-(3-(4-fluoro-3-methylphenyl)-7-hydroxychroman-4-yl)phenyl)piperidin-4-yl)methyl)piperazin-1-yl)-1-oxoisoindolin-2-yl)piperidine-2,6-dione] | 6.5
